Measurements taken from patent US4333938A, “Imino derivatives of 5-aminobenzodioxole-1,3 which are useful as medicaments” (Laboratoires Sarget, priority 1979, dated 1982).
“And” between values parts separate entries of the source, which are not always exact repeats. Identical values can stand only once.

How the values were obtained:
carageenan-induced edema = experiment: inhibition of carrageenan-induced edema; assay type: in vivo, male Wistar rat; details: oral
Procedure: The inflammation is produced in the male Wistar rat by injection of 0.1 ml of a 0.5% suspension of carageenan in physiological serum, into the muscular fascia of the metatarsal region of the hind foot of the animal. The test substance is administered orally at the same time as the carageenan or 30 or 60 min before carageenan. The edema is measured by plethysmometry three hours after the adminstration of the carrageenan.

[1] = oral toxicity (mortality) in the mouse; details: in vivo, Swiss mice
Procedure: The percentages of mortality produced by the compounds of this invention when administered orally to Swiss mice are shown in Table 1. The animals, free from specific pathogenic organisms were housed in an air conditioned room for 24 to 48 hours before the start of the experiment. They were separated into groups of 5 males and 5 females. The materials were administered to animals which had been fasted for 24 hours by means of a gastric tube in suspension in a 6% thickened julep using a volume equivalent to 0.1 ml per 10 g of body weight. […] They remained under observation for two weeks before being sacrificed and autopsied.

[2] = tested on: carrageenan-induced granulomas; experiment: activity on carrageenan-induced granulomas; assay type: in vivo, Male Wistar rats
Procedure: Male Wistar rats weighing 130 to 150 grams were given a subcutaneous injection in the central part of the skin of the back of 0.5 ml of an aqueous suspension of carrageenan. Two doses of the test substance are administered, one 30 minutes before and the other 6 hours after carrageenan. At the end of 24 hours the rats were sacrificed and the granulomas were removed and weighed before and after drying for 24 hours at 50° C. The difference in weight of the granulomas wet and dry represents the exudate
These AD50 are respectively 175(142-215) and 175(150-205) mg/kg.

solubility in water = assay type: physicochemical
phenylbenzoquinone (PBQ) = experiment: analgesic activity, phenylbenzoquinone (PBQ) challenge; assay type: in vivo; details: male Swiss mouse, oral; for ED50: method of Lichfield and Wilcoxon
Procedure: The analgesic activity was determined in the male Swiss mouse using phenylbenzoquinone (PBQ) as the challenging agent (variation of the method of Siegmund et al, Proc. Soc. Exp. Biol. Med. […], 95, 729-31). […] The ED50 was determined by the method of Lichfield and Wilcoxon.

cotton pellet granulomas = experiment: inhibition of cotton pellet granulomas; assay type: in vivo, male Sprague-Dawley rats; details: oral, daily for 10 days
Procedure: Two cotton pellets weighing 70 mg were implanted under the back skin of male Sprague-Dawley rats anesthetized with ether. Starting the next day, the compound was administered orally daily for 10 days. The rats were sacrificed and the pellets were removed and weighed before and after drying at 50° C. for 24 hours. The weights used were those obtained after deduction of the weight of the implants. The average of the quantities so calculated was determined for each group and compared to the averages of the control group.

stomachs = experiment: ulcerogenic activity; assay type: in vivo, female Wistar rat
Procedure: The ulcerogenic activity was determined in the female Wistar rat using a variation of the procedure described by J. M. Lwoff, J. Pharmacol. 1971, 3, 1, 81-3. The test substance was administered daily for 3 days to the animals maintained on a aqueous diet. The stomachs were removed after 1, 2, and 3 days of treatment and the ulcerations were classified from 0 to 4. The ulceration index is calculated for each group of animals as the product (average of the classes x the percentage of animals afflicted), while distinguishing acute ulcerations from ulcers which were in the process of healing.

blood sugar level = experiment: antidiabetic activity, blood sugar level in streptozotocin hyperglycemic rats; assay type: in vivo, Female rats; design: key: NS: the difference between the blood sugar level in the treated animals and the control animals is not significant; the difference is significant by Student's test at p≤0.05; details: oral
Procedure: Female rats weighing 180-200 grams were given an intraperitoneal dose on day J0 of 100 mg/kg of streptozotocin in a 0.05 M citrate buffer at a pH of 4.5 calculated as 0.5 ml per 100 g of body weight. On day J2 hyperglycemic animals were selected by determining the blood sugar level by the orthotoludine method in a stream continuously removed from the retroorbital sinus. […] On day J3, without previous fasting, the selected animals received the treatment. This consisted of oral administration of the test compound in a 6% aqueous suspension of gum arabic at a volume of 0.5 ml per 100 g of body weight.
The animals were sacrificed one, two, or four hours after the treatment and their blood sugar levels were determined. Each group of animals was compared to a control group of animals which received only the suspension of gum arabic. Metformin was the substance chosen as the control.
The results are given in Table 8 which indicates the percentage of decrease in the blood sugar level produced by the treatment.

CC(=O)Oc1ccccc1C(=O)O [Aspirin, reference compound]
% inhibiting activity on carrageenan-induced edema (carageenan-induced edema; at To, 75 mg/kg): 40%
% inhibiting activity on carrageenan-induced edema (carageenan-induced edema; at To, 150 mg/kg): 46%
% inhibiting activity on carrageenan-induced edema (carageenan-induced edema; at To, 300 mg/kg): 68%
% inhibiting activity on carrageenan-induced edema (carageenan-induced edema; at To, 450 mg/kg): 64%

C(=Nc1ccc2c(c1)OCO2)c1cccs1 [Example 1, N-thienylidene-5-aminobenzodioxole-1,3]
mortality at 336 h ([1]; 1000 mg/kg): 0%
mortality at 336 h ([1]; 1500 mg/kg): 20%
mortality at 336 h ([1]; 2000 mg/kg): 60%
mortality at 336 h ([1]; 3000 mg/kg): 70%
% inhibiting activity on carrageenan-induced edema (carageenan-induced edema; at To (same time as carrageenan), 25 mg/kg): 19%
% inhibiting activity on carrageenan-induced edema (carageenan-induced edema; at To, 50 mg/kg): 41%
% inhibiting activity on carrageenan-induced edema (carageenan-induced edema; at To, 100 mg/kg): 52%
% inhibiting activity on carrageenan-induced edema (carageenan-induced edema; at To, 200 mg/kg): 56%
% inhibiting activity on carrageenan-induced edema (carageenan-induced edema; at To, 400 mg/kg): 58%
Exudate, % activity ([2]; 200 mg/kg administered twice): 6%
Exudate, % animals 30% protected ([2]; 200 mg/kg administered twice): 12.5%
Weight of dry granuloma, % activity ([2]; 200 mg/kg administered twice): 1%
Weight of dry granuloma, % animals 30% protected ([2]; 200 mg/kg administered twice): 12.5%
Weight of wet granuloma, % activity ([2]; 200 mg/kg administered twice): 6%
Weight of wet granuloma, % animals 30% protected ([2]; 200 mg/kg administered twice): 12.5%
solubility in water (solubility in water): insoluble in water
% analgesic activity (phenylbenzoquinone (PBQ); 100 mg/kg): 34%
% analgesic activity (phenylbenzoquinone (PBQ); 125 mg/kg): 43%
% analgesic activity (phenylbenzoquinone (PBQ); 150 mg/kg): 69%
% analgesic activity (phenylbenzoquinone (PBQ); 200 mg/kg): 73%
ED50 (phenylbenzoquinone (PBQ)): 130 mg/kg

Cc1ccsc1C=Nc1ccc2c(c1)OCO2 [Example 4, N-(3-methyl-2-thienylidene)-5-aminobenzodioxole-1,3]
mortality at 336 h ([1]; 750 mg/kg): 10%
mortality at 336 h ([1]; 1000 mg/kg): 10%
mortality at 336 h ([1]; 1500 mg/kg): 60%
mortality at 336 h ([1]; 1750 mg/kg): 20%
mortality at 336 h ([1]; 2000 mg/kg): 20%
% inhibiting activity on carrageenan-induced edema (carageenan-induced edema; at To, 75 mg/kg): 35%
% inhibiting activity on carrageenan-induced edema (carageenan-induced edema; at To, 150 mg/kg): 35%
% inhibiting activity on carrageenan-induced edema (carageenan-induced edema; at To, 300 mg/kg): 68%
% inhibition with respect to dry pellets (cotton pellet granulomas; dose 150): 10%
% inhibition with respect to wet pellets (cotton pellet granulomas; dose 150): 13%
% inhibition with respect to dry pellets (cotton pellet granulomas; dose 300): 19%
% inhibition with respect to wet pellets (cotton pellet granulomas; dose 300): 14%
Exudate, % activity ([2]; 100 mg/kg administered twice): 21%
Exudate, % animals 30% protected ([2]; 100 mg/kg administered twice): 38%
Weight of dry granuloma, % activity ([2]; 100 mg/kg administered twice): 16%
Weight of dry granuloma, % animals 30% protected ([2]; 100 mg/kg administered twice): 31%
Weight of wet granuloma, % activity ([2]; 100 mg/kg administered twice): 20.5%
Weight of wet granuloma, % animals 30% protected ([2]; 100 mg/kg administered twice): 38%
Exudate, % activity ([2]; 200 mg/kg administered twice): 34.5%
Exudate, % animals 30% protected ([2]; 200 mg/kg administered twice): 71%
Weight of dry granuloma, % activity ([2]; 200 mg/kg administered twice): 31%
Weight of dry granuloma, % animals 30% protected ([2]; 200 mg/kg administered twice): 64%
Weight of wet granuloma, % activity ([2]; 200 mg/kg administered twice): 34%
Weight of wet granuloma, % animals 30% protected ([2]; 200 mg/kg administered twice): 71%
Exudate, % activity ([2]; 300 mg/kg administered twice): 44.5%
Exudate, % animals 30% protected ([2]; 300 mg/kg administered twice): 75%
Weight of dry granuloma, % activity ([2]; 300 mg/kg administered twice): 42.5%
Weight of dry granuloma, % animals 30% protected ([2]; 300 mg/kg administered twice): 67%
Weight of wet granuloma, % activity ([2]; 300 mg/kg administered twice): 44.5%
Weight of wet granuloma, % animals 30% protected ([2]; 300 mg/kg administered twice): 75%
Ulceration Index, acute (stomachs; 150 mg/kg daily, Day 1): 0
Ulceration Index, healing (stomachs; 150 mg/kg daily, Day 1): 0
Ulceration Index, acute (stomachs; 150 mg/kg daily, Day 2): 0
Ulceration Index, healing (stomachs; 150 mg/kg daily, Day 2): 8
Ulceration Index, acute (stomachs; 150 mg/kg daily, Day 3): 72
Ulceration Index, healing (stomachs; 150 mg/kg daily, Day 3): 16
solubility in water (solubility in water): insoluble in water
% analgesic activity (phenylbenzoquinone (PBQ); 75 mg/kg): 21%
% analgesic activity (phenylbenzoquinone (PBQ); 100 mg/kg): 40%
% analgesic activity (phenylbenzoquinone (PBQ); 150 mg/kg): 37%
% analgesic activity (phenylbenzoquinone (PBQ); 200 mg/kg): 62%
% analgesic activity (phenylbenzoquinone (PBQ); 300 mg/kg): 67%
ED50 (phenylbenzoquinone (PBQ)): 170 mg/kg

CN(C)C(=N)N=C(N)N [Metformin, reference compound]
Percentage Decrease in the Blood Sugar (blood sugar level; 200 mg/kg, treatment 1 h before sacrificing): NS
Percentage Decrease in the Blood Sugar (blood sugar level; 200 mg/kg, treatment 2 h before sacrificing): NS
Percentage Decrease in the Blood Sugar (blood sugar level; 200 mg/kg, treatment 4 h before sacrificing): NS
Percentage Decrease in the Blood Sugar (blood sugar level; 400 mg/kg, treatment 1 h before sacrificing): 14%
Percentage Decrease in the Blood Sugar (blood sugar level; 400 mg/kg, treatment 2 h before sacrificing): NS
Percentage Decrease in the Blood Sugar (blood sugar level; 400 mg/kg, treatment 4 h before sacrificing): 15%

O=C(O)c1cccnc1Nc1cccc(C(F)(F)F)c1 [Niflumic Acid, reference compound]
% inhibiting activity on carrageenan-induced edema (carageenan-induced edema; at To, 75 mg/kg): 37%
% inhibiting activity on carrageenan-induced edema (carageenan-induced edema; at To, 100 mg/kg): 27%
% inhibiting activity on carrageenan-induced edema (carageenan-induced edema; at To, 125 mg/kg): 40%
% inhibiting activity on carrageenan-induced edema (carageenan-induced edema; at To, 150 mg/kg): 37% and 59%
% inhibition with respect to dry pellets (cotton pellet granulomas; dose 50): 12%
% inhibition with respect to wet pellets (cotton pellet granulomas; dose 50): 3%
Exudate, % activity ([2]; 25 mg/kg administered twice): 42.5%
Exudate, % animals 30% protected ([2]; 25 mg/kg administered twice): 100%
Weight of dry granuloma, % activity ([2]; 25 mg/kg administered twice): 41.5%
Weight of dry granuloma, % animals 30% protected ([2]; 25 mg/kg administered twice): 87%
Weight of wet granuloma, % activity ([2]; 25 mg/kg administered twice): 42.5%
Weight of wet granuloma, % animals 30% protected ([2]; 25 mg/kg administered twice): 100%
Ulceration Index, acute (stomachs; 100 mg/kg daily, Day 1): 330
Ulceration Index, healing (stomachs; 100 mg/kg daily, Day 1): 0
Ulceration Index, acute (stomachs; 100 mg/kg daily, Day 2): 1
Ulceration Index, healing (stomachs; 100 mg/kg daily, Day 2): 400
Ulceration Index, acute (stomachs; 100 mg/kg daily, Day 3): 119
Ulceration Index, healing (stomachs; 100 mg/kg daily, Day 3): 378
